# In US20250327074A1 (SHAOXING INSTITUTE, ZHEJIANG UNIVERSITY, priority 2024, published 2025):
# Test system: rare codon in EGFP reporter, HEK293T cells
# Assay: LC-MS recoding efficiency of rare codons in EGFP reporter
# Assay type: cell-based
# Settings: TCG at position 151 of EGFP; 12× tRNA; serine/glycine-free medium; 500 μM unnatural amino acid
# Protocol: The recoding translation system and the rare codon-bearing POI were co-transfected into HEK293T cells. Then, two methods were used to calculate the ncAA recoding rate: 1) LC-MS analysis: the protein of the POI mixture, including the fraction incorporated with ncAA and the fraction with NAA at rare codons, was purified by Ni2+-NTA beads and subjected to LC-MS analysis. The ncAA recoding rate was determined by the intensity of two fractions quantified by LC-MS. 2) TCO-PEG5000 mass tag labeling analysis: this method was suitable for quantifying the TetBu recoding rate in this work. When the protein mixture was incubated with TCO-PEG5000 mass tag, the protein incorporated with TetBu would be labeled by this mass tag and migrated much slower in SDS-PAGE.
# When the recoding system (TetRS/PylTyyy) is co-expressed with a target protein carrying the recoding codon in HEK293T, the recoding codon can be translated into a natural amino acid by endogenous tRNA (Dec-tRNA), or recoding into TetBu by the engineered tRNA (Rec-tRNA), producing a mixture of protein byproducts (with a single-site mutation) and the target protein containing TetBu. Based on this, two methods were established to assess sense codon recoding efficiency: a) Liquid chromatography-mass spectrometry (LC-MS) for differentiates proteins based on molecular weight differences, and b) TCO-PEG5000 macromolecular label target proteins containing TetBu, which increases their molecular weight by 5 kDa. The shift in protein bands is detected via immunoblotting (FIG. 2).
# (1) Transfection: Plasmids encoding the TetBu/PylTyyy recoding system (where xxx represents different codons and yyy represents different anticodons) were co-transfected with the plasmid mCherry-T2A-EGFP^N149XXX-6×His at a 1:1 (g:g) ratio. For a 10 cm dish, the total transfection mixture contained 20 μg DNA+[…] Lipofectamine 2000+2 mL Opti-MEM.
# (2) Protein expression and purification: After 6 hours, the medium was replaced with fresh DMEM containing 200 μM TetBu for 40 hours to induce protein expression. Cells were lysed in 1 mL Modified RIPA Buffer, and the supernatant was purified using Ni-NTA beads.
# (3) LC-MS analysis of recoding efficiency:Using a Waters Xevo G2-XS TOF Mass Spectrometer, the recoding efficiency of rare codons (CTA, GTA, CGT, CCG, GCG, ACG, and TCG) at the EGFP149 site was evaluated.
# (2) Cell transfection and protein expression purification: HEK293T cells were seeded in 10 cm culture dishes and transfected at 60-70% confluency. For each transfection, […] of plasmid carrying mCherry-T2A-EGFPY151TCG-6×His was co-transfected with one of the following recoding system plasmids: chPhe_AcFRS/12×(U6-chPheTCGA), EcTyr_OmeYRS/12×(U6-EcTyrTCGA), or EcLeu_OmeYRS/12×(U6-EcLeuTCGA). After 6 hours, the medium was replaced with serine/glycine-free DMEM/F12 containing 500 μM of the respective unnatural amino acid. Following protein expression and purification, LC-MS was used to determine TCG recoding efficiency at position 151 of EGFP. Detailed transfection and purification protocols following section 2.2.1.2, with cell culture conditions in serine-free medium as described in Example 2.
row,SMILES,recoding efficiency
1,"CC(C)(C)OC(=O)NCCCC[C@H](N)C(=O)O [BocK, ε-N-tert-butyloxycarbonyllysine]",82%
2,N[C@@H](Cc1ccc(OS(=O)(=O)O)cc1)C(=O)O [sTyr],85%
3,CC(=O)NCCCC[C@H](N)C(=O)O [AcK],78%
4,CCC(=O)NCCCC[C@H](N)C(=O)O [Kpr],79%
5,"C/C=C/C(=O)NCCCC[C@H](N)C(=O)O [Kcr, ε-N-crotonyl-lysine]",84%
6,CCCC(=O)NCCCC[C@H](N)C(=O)O [Kbu],74%

# Test system: EGFP F84TCG mutant
# Assay: EGFP F84TCG fluorescence activation by UAA
# Assay type: cell-based
# Settings: not given
# Text: Using EGFP as an example, this example describes a general method for screening recoding sites and UAA types in protein activation regulated by UAA incorporation. In the absence of UAAs, the TCG recoding system decodes the TCG codon as serine (Ser). To maximize disruption towards protein function, we screened phenylalanine (Phe), tyrosine (Tyr), and tryptophan (Trp)—amino acids with the greatest structural divergence from Ser for potential incorporation. Following identification of Ser-substituted inactivation sites, we screened UAAs capable of rescuing protein activity, yielding optimal recoding system/UAA pairs (a-b of FIG. 22). […] This strategy was successfully extended to diverse proteins including fluorescent proteins (e.g., mCherry), enzymes (e.g., luciferase, kinases, peroxidases), and translation regulators (e.g., initiation factors, post-translational modification readers).
SMILES,concentration with detectable EGFP activation,time to fluorescence activation after UAA delivery
"COc1ccc(C[C@H](N)C(=O)O)cc1 [OmeY, O-methyl-tyrosine]",0.00001 mM,≤ 1 min

# Same assay, conditions: TCG-recoding system decoding OmeY
row,SMILES,fluorescence enhancement upon UAA addition versus no UAA
1,"COc1ccc(C[C@H](N)C(=O)O)cc1 [OmeY, O-methyl-tyrosine]",> 100 fold

# Test system: FLucY255ACG/K529TCG mutant
# Assay: FLuc dual caged UAA decaging luminescence assay
# Assay type: cell-based
# Settings: dual incorporation of ONBY with TCOK/PABK
# Text: To established a method for orthogonal activation control of proteins, two caged UAAs are incorporated site-specifically into the active pocket or adjacent sites of target proteins through the dual rare codon recoding strategy, wherein steric hindrance leads to the protein inactivation, followed by protein activation through photochemical or chemical decaging strategies. The TCG/ACG dual recoding system decodes TCG/ACG sites as serine/threonine in the absence of UAAs. During the screening of FLuc, the K529 and Y255 site are identified with minimal background upon serine incorporation and threonine incorporation respectively, which were subsequently used for dual caged UAA incorporation. Using the FLucY255ACG/K529TCG mutant as an example, the TCG recoding system decoding ONBY, the ACG recoding system decoding TCOK/PABK, and reporter genes were co-transfected into cells, followed by luminescence assay to evaluate protein activation.
row,SMILES,"FLuc activity in the presence of both caged UAAs, before decaging"
1,N[C@@H](CCCCNC(=O)OC1/C=C/CCCCC1)C(=O)O (stereo partly drawn) [TCOK],nearly complete inactivation
2,N[C@@H](Cc1ccc(OCc2ccccc2[N+](=O)[O-])cc1)C(=O)O [ONBY],nearly complete inactivation
3,[N-]=[N+]=Nc1ccc(COC(=O)NCCCC[C@H](N)C(=O)O)cc1 [PABK],nearly complete inactivation

# Test system: TCG codon, mammalian cells
# Assay: TCG codon recoding efficiency of all amino acids (Table 1)
# Assay type: cell-based
# Settings: TCG codon recoding of the unnatural amino acid with the aaRS and mutation of the same table line; class symbols
row,SMILES,Recoding rate (%)
1,N[C@@H](Cc1ccc(OS(=O)(=O)F)cc1)C(=O)O [compound 287],+++ (“+++” greater than 80%)
2,N[C@@H](Cc1ccc(C(=O)CF)cc1)C(=O)O [compound 338],++ (“++” greater than 60%)
3,CCCCCCC#Cc1ccc(C[C@H](N)C(=O)O)cc1 [compound 312],++ (“++” greater than 60%)
4,N[C@@H](Cc1ccc(NC(=O)CCl)cc1)C(=O)O [compound 356],+++ (“+++” greater than 80%)
5,N[C@@H](Cc1ccc(C=CCCc2ccc3c(c2)CCC3)cc1)C(=O)O [compound 322],++ (“++” greater than 60%)
6,CCCCC#Cc1ccc(C[C@H](N)C(=O)O)cc1 [compound 310],+++ (“+++” greater than 80%)
7,[N-]=[N+]=NCCCCSC[C@H](N)C(=O)O [compound 388],++ (“++” greater than 60%)
8,N[C@@H](Cc1ccc(C(=O)c2ccc(Cl)cc2)cc1)C(=O)O [compound 343],++ (“++” greater than 60%)
9,N[C@@H](Cc1ccc(C#CCCCCCBr)cc1)C(=O)O [compound 317],+ (“+” indicates a recoding efficiency greater than 40%)
10,C#CCC(=O)Nc1ccc(C[C@H](N)C(=O)O)cc1 [compound 352],+++ (“+++” greater than 80%)
11,N[C@@H](Cc1ccc(C#CCCC2CCCC2)cc1)C(=O)O [compound 304],++ (“++” greater than 60%)
12,CC(=O)CCCSC[C@H](N)C(=O)O [compound 377],++ (“++” greater than 60%)
13,CCCCC=Cc1ccc(C[C@H](N)C(=O)O)cc1 [compound 315],+++ (“+++” greater than 80%)
14,N[C@@H](Cc1ccc(CC(=O)O)cc1)C(=O)O [compound 357],++ (“++” greater than 60%)
15,C#CCOc1ccc2[nH]cc(C[C@H](N)C(=O)O)c2c1 [compound 415],+ (“+” indicates a recoding efficiency greater than 40%)
16,N[C@@H](CCC(=O)OCc1ccccc1)C(=O)O [compound 265],++ (“++” greater than 60%)
17,N[C@@H](CCCS)C(=O)O [compound 394],++ (“++” greater than 60%)
18,N[C@@H](Cc1ccc(C=CCCc2ccc3ccccc3c2)cc1)C(=O)O [compound 321],++ (“++” greater than 60%)
19,N[C@@H](Cc1ccc(C(=O)c2ccc(F)cc2)cc1)C(=O)O [compound 342],++ (“++” greater than 60%)
20,CCCCCCSC[C@H](N)C(=O)O [compound 379],++ (“++” greater than 60%)

# Same assay, conditions: TCG codon recoding of the unnatural amino acid with the aaRS and mutation of the same table line; numeric values
row,SMILES,Recoding rate (%)
1,CC(C)(C)Oc1ccc(C[C@H](N)C(=O)O)cc1 [compound 244],72%
2,N[C@@H](Cc1ccsc1)C(=O)O [compound 256],64%
3,CCCSC(=O)CCCC(=O)NCCCC[C@H](N)C(=O)O [compound 284],57%
4,N[C@@H](Cc1cccc(F)c1F)C(=O)O [compound 228],80? %
5,[N-]=[N+]=Nc1ccc(C[C@H](N)C(=O)O)cc1 [compound 298],88%
6,CC(=O)c1ccc(C[C@H](N)C(=O)O)cc1 [compound 359],78%
7,N#Cc1ccc2c(C[C@H](N)C(=O)O)c[nH]c2c1 [compound 293],84%
8,COc1ccc([N+](=O)[O-])c2c1CCN2C(=O)CC[C@H](N)C(=O)O [compound 374],43%
9,N[C@@H](Cc1ccc(OS(=O)(=O)F)cc1)C(=O)O [compound 373],68%
10,COc1ccc2[nH]cc(C[C@H](N)C(=O)O)c2c1 [compound 413],85%
